Data from patent US20250277213A1, “COMPOSITIONS AND METHODS RELATED TO MULTIPLE MYELOMA-ASSOCIATED LONG NONCODING RNAS” (Washington University, priority 2024, published 2025).
Entries after “also recorded” stand apart in the source; their conditions may differ.

Key:
Type in all cases: cell-based
LINC01432 [1] = test: LINC01432 expression in U266B1 cells treated with standard drugs; details: FIG. 8B, 8C
LINC01432 [2] = test: mFISH of LINC01432 in U266B1 cells treated with high-dose melphalan
Method: RNAScope was performed as previously described, with some modifications using RNAscope 2.5 HD Reagent Kit Red assay combined with Immunohistochemistry (Advanced Cell Diagnostics [ACD], Catalog #323180 and #322372) according to manufacturer's instructions. Briefly, bone marrow aspirates or isolated tumors were applied to slides were baked in a dry air oven for one hour at 60° C., deparaffinized (Xylene for five minutes twice, followed by 100% ethanol for two minutes twice), hydrogen peroxide was applied for 10 minutes at room temperature, and co-detection target retrieval was performed using Steamer (BELLA) for twenty minutes and PBS-T washing. Slides were then incubated overnight with CUGBP2 (CELF2) antibody (Protein Tech, Cat #12921-1-AP) in a HybEz Slide Rack with damp humidifying paper and incubated overnight at 4° C. The next day, slides were washed in PBS-T then post-primary fixation was performed by submerging slides in 10% NBF for 30 minutes at room temperature. […]
Analysis of mFISH and IHC images was performed by comparing expression of LINC01432 or CELF2 between different cell lines or tissues and simultaneously verifying their cellular localization or intensity of expression. We first visualized our target RNA molecules using an EVOS M5000 imaging system and quantified targets with QuPath Software v0.5.1 to obtain cell-count per region and number of spots per cell data. […]

[3] = system: LINC01432 binding to CELF2; test: iCLIP RT-qPCR of CELF2 binding to LINC01432 in U266B1 cells treated with melphalan; details: high-dose melphalan for 48 hours, FIG. 16B
Method: Cells were seeded at a density of twenty million cells/150 mm dish. The next day, cells were washed with cold PBS and media volumes were adjusted to 10 ml/dish. Dishes were then uncovered and irradiated with 150 mJ/cm^2 of […] (254 nm) in a crosslinker device (Stratalinker). Cells were then harvested and centrifuged at 2000 RPM at 4° C. for 5 minutes. Cell pellets were resuspended in 1 ml of NP-40 lysis buffer (20 mM Tris-HCl at pH 7.5, 100 mM KCl, 5 mM MgCl2, and 0.5% NP-40) with 1 μl protease inhibitor and 1 mM DTT, incubated on ice for ten minutes, and then centrifuged at 10,000 RPM for 15 minutes at 4° C. Supernatants were collected, 1 U/μl RNase T1 was added, then cell lysates were incubated at 22° C. for 30 minutes. Protein G Beads were resuspended in 100 μls NT2 buffer (50 mM Tris-HCl at pH 7.5, 150 mM NaCl,1 mM MgCl2, 0.05% NP-40) with 5 μg of respective antibodies, then rotated for one hour at room temperature. Cell lysates were added to the beads and incubated for three hours at 4° C., the beads were washed with NT2 buffer, and then incubated with 20 units RNAse-free DNase I for 15 minutes at 37° C. in a thermomixer, shaking slowly. […] (141 μls NP-40 lysis buffer, 0.1% SDS, 0.5 mg/ml Proteinase K) was then added and incubated for 15 minutes at 55° C. in a thermomixer, shaking at maximum speed. […]

MM cell lines = test: Apoptosis after LNA ASO-mediated CELF2 knockdown; details: MM cell lines (U266B1 in FIG. 12B); vs control LNA ASO
LINC01432 [4] = test: RT-qPCR of LINC01432 expression after LNA ASO transfection; details: RPMI 8226 cells; 100 nM ASO, 48-72 hours; vs control LNA ASO; FIG. 5A
Method: (§1) Locked nucleic acid GapmeR antisense oligonucleotides (LNA ASOs) targeting LINC01432 (Qiagen, cat #3653410) and CELF2 (Qiagen, cat #339511), and negative control LNA ASOs (Qiagen, cat #148759394), were designed using the Qiagen Antisense LNA GapmeR Custom Builder (https://www.qiagen.com), sequences are listed in Table 2. RPMI 8226 cells were seeded at a density of 500,000 cells/well in 6-well plates, transfected with respective ASOs at 100 nM concentration using Lipofectamine 2000, and incubated for 48-72 hours. Cells were harvested and target knockdown was validated via RT-qPCR.

RPMI 8226 cells [5] = test: Proliferation (alamarBlue, IC50 assay) of cells treated with LNA ASO and Melphalan
Method: (§2) We used the ApoTox-Glo Triplex Assay (Promega, Madison, WI) to simultaneously measure viability, cytotoxicity, and apoptosis in the same sample. We seeded 20,000 cells/well of Control CRISPR/Cas9, LINC01432 knockdown CRISPR/Cas9, empty vector, LINC01432 overexpression, or wild-type RPMI 8226 cells in triplicate into a 96-well plate at 100 uls complete media per well. We began by first adding 20 ul of Viability/Cytoxicity reagent to all wells, and briefly mixing for ˜30 seconds. Plates were then placed in a 37° C. incubator for one hour. Next, we measured the intensity of fluorescence (relative fluorescence units) using 400Ex/505Em (viability) and 485Ex/520Em (Cytotoxicity) in Varioskan LUX microplate reader. To measure apoptosis, we next add 100 ul Caspase-Glo 3/7 reagent to the same wells and briefly mixed by orbital shaking ˜20 seconds, followed by incubation at room temp for 30 minutes. Luminescence (relative luminescence units) was then measured using Varioskan LUX microplate reader to detect caspase activation. A similar protocol was used to detect the proliferation of cells treated with Melphalan at increasing concentrations (Sigma Aldrich, St. Louis, MO, cat #M2011) using 10 uls Invitrogen alamarBlue HS Cell Viability Reagent in 90 μls of 25,000 cells with media (Waltham, MA, cat #A50100). Fluorescence was then measured using 560Ex/570Em in a microplate reader.

RPMI 8226 cells [6] = system: RPMI 8226 cells
Method: as §1, §2

RPMI 8226 cells [7] = test: Annexin V and propidium iodide flow cytometry, LNA ASO followed by Melphalan
Method: We measured apoptosis by isolating cells and assessing via flow cytometry using BD Horizon V450 AnnexinV (BD Biosciences, Franklin Lakes, NJ). We seeded 500,000 cells/well in a 6-well plate for 24 hours. Cells were then harvested, and the usual protocol was followed, per manufactures instructions. Briefly, cells were washed twice with PBS, then incubated V450 AnnexinV and Propidium Iodide (ThermoFisher) for fifteen minutes at room temperature in the dark. Apoptosis and DNA content was assessed on a flow cytometer machine (Novios, Becton Dickinson) by the Flow Cytometry Core of Siteman Cancer Center, Washington University in St. Louis. We collected a minimum of 50,000 cells per sample in triplicate. FlowJo Version10 (Becton Dickinson) was used to analyze data.

## N[C@@H](Cc1ccc(N(CCCl)CCCl)cc1)C(=O)O [melphalan, Melphalan]
LINC01432 [1]
  LINC01432 expression: increases LINC01432 expression
LINC01432 [2]; high-dose melphalan for 24 hours, p=0.001
  LINC01432 expression by mFISH: High expression
LINC01432 [2]; high-dose melphalan for 48 hours, p=0.0012
  LINC01432 expression by mFISH: High expression
[3]
  decrease in binding enrichment compared to control cells, Tiling Primer 1: > 2 Fold Change
  decrease in binding enrichment compared to control cells, Tiling Primer 5: > 2 Fold Change

## CELF2 LNA ASO: LNA GapmeR antisense oligonucleotide targeting CELF2, GATGAACTCGTTACGC (SEQ_ID_NO: 33) (antisense GAUGAACUCGUUACGC; LNA gapmer from Qiagen, LNA pattern not given here)
MM cell lines
  apoptosis: increased apoptosis

## LINC01432-targeted LNA ASO: LNA GapmeR antisense oligonucleotide targeting LINC01432, TGGAGATTTTGCCATT (SEQ_ID_NO: 31) (antisense UGGAGAUUUUGCCAUU; LNA gapmer, pattern not given here)
LINC01432 [4]
  LINC01432 expression: confirmed knockdown of LINC01432 expression
RPMI 8226 cells [5]; MM cell lines in vitro, with high-dose melphalan
  sensitivity to melphalan: induce sensitivity to melphalan; also recorded: enhanced sensitivity to melphalan
RPMI 8226 cells [5]; RPMI 8226 cells, LNA ASO plus Melphalan, vs control LNA ASO, FIG. 5D
  proliferation: decreased proliferation
RPMI 8226 cells [6]
  cytotoxicity: significant decreases
RPMI 8226 cells [6]; RPMI 8226 cells, vs control LNA ASO, p=0.001, FIG. 5B
  viability: significant decreases
RPMI 8226 cells [6]; RPMI 8226 cells, vs control LNA ASO, p=0.017, FIG. 5B
  apoptosis: significant increase
RPMI 8226 cells [7]; MM cell lines in vitro, co-treatment with high-dose melphalan
  apoptosis on co-treatment with melphalan: increased apoptosis
RPMI 8226 cells [7]; RPMI 8226 cells, LNA ASO followed by 24 hours of 30 μM Melphalan, vs control LNA ASO, FIG. 5C
  proportion of cells in early apoptosis and necrosis: increased
